Measurements taken from patent publication US20260263651A1, “WOUND DRESSING” (UNIVERSITY OF SUNDERLAND, priority 2023, published 2026).
“Also recorded” adds a separate entry of the source.

Legend:
Assay type in all cases: cell-based
Pseudomonas aeruginosa = assay: Microbiological evaluation of overnight bacteria suspensions, modified alginate wound dressing with absorbed substrate on agar; conditions: PSA overnight culture, 24 h incubation at 37° C.
Experimental: (§1) ACTIVHEAL® simply A (10×20 cm) non-adhesive foam samples were provided by Advanced Medical Solutions Ltd. The wound dressings were cut into ~5-10×5-10 mm squares, using an ethanol washed pair of scissors. A maximum of 0.20 g of the material was added into 10 mL DI water, and the pH was adjusted to ~3 by the addition of 0.1 M aq. HCl solution. The solution was stirred for 10 mins at room temperature, followed by the addition of 0.33 g EDC •HCl (1.7 mmol) and the pH was maintained at ~3 by the addition of 0.1 M aq. HCl solution. The solution was stirred at room temperature for 10 mins followed by the addition of 0.88 g compound 8 which was dissolved in DMSO or DMF. The mixture was stirred at room temperature for 48 h. The wound dressings were filtered and were washed with ethanol. To ensure the full removal of any non-coupled amide (8), the foam samples were resuspended in ethanol, stirred for 10 mins and filtered, and this process was repeated until the amide (8) was not detectable from the filtrate (this could be maintained by TLC or HPLC evaluation). The samples were dried in a vacuum oven for 3-4 h.
(§2) The aqueous solution of 3a or 3b was prepared by the following: the desired amount of the enzymatic substrate (3.0 mg for 300 mg/L, 6.0 mg for 600 mg/L, 9.0 mg for 900 mg/L, 15.0 mg for 1500 mg/L, and 30.0 mg for 3000 mg/L) was weighed out on a 4 decimal place balance within ±0.3 mg error limit into a 10 mL volumetric flask and was adjusted to 10.0 mL with DI water. The solutions were absorbed into the foam samples and dried in a vacuum oven at 40° C. overnight.
(§3) To model fluid exudate from a chronic wound, the wound dressing made according to ‘Modification of ActivHeal® Alginate’, above, was placed into an agar plate and the test pathogen was smeared over the surface of the agar.
(§4) The enzymatic substrates were tested in 4 different concentrations (300, 600, 900 and 3000 mg/L) using DI water as a solvent, and the solutions were absorbed into the wound dressing samples, which were dried overnight under vacuum at 40° C.
(§5) Two Gram negative strains (Escherichia coli—EC and Pseudomonas aeruginosa—PSA) and a Gram positive bacteria (Staphylococcus aureus—SA) were evaluated against the dimethyl (3a) and the diethyl (3b) substituted substrate. The overnight cultures were directly smeared from LB broth onto Columbia blood agar without measuring the OD. The wound dressings with the enzymatic substrate absorbed were placed onto the agar and were incubated overnight (see FIGS. 2-7).

Escherichia coli [1] = assay: as above; conditions: for Observable colour change: EC overnight culture, 24 h incubation at 37° C.
Experimental: as §1, §2, §3, §4, §5

Escherichia coli [2] = assay: Microbiological evaluation of standardised bacterial suspensions, modified wound dressing with absorbed substrate on agar; set-up: key to Observable colour change: − indicates no colour change; +− indicates relatively discernible blue colour change; + indicates a moderately strong blue colour change; ++ indicates a strong blue colour change
Experimental: as §1, §2
Bacterial strains were routinely cultured from working stocks in Tryptic Soy Broth (TSB) and incubated at 37° C. overnight with shaking at 150 RPM. Overnight cultures were centrifuged at 3000×g for 5 minutes, the supernatant discarded, and the pellet resuspended in 10 mL phosphate buffered saline (PBS). Bacterial inoculums were standardised by optical density at 600 nm on an Amersham Biosciences Ultrospec 10 spectrophotometer (Amersham Biosciences, Amersham, UK) to contain between 1 and 3×10^8 CFU/mL.
However, rapid evaluation of lower bacteria concentrations is essential for the desired clinical application. Three different solutions (300, 600 and 1500 mg/L) were prepared from the substrates 3a and 3b in micro filtered DI water as a solvent. The solutions were absorbed into the wound dressing samples, which were dried overnight under vacuum at 40° C.
Two Gram negative strains (Escherichia coli—EC and Pseudomonas aeruginosa—PSA) and a Gram-positive bacterium (Staphylococcus aureus—SA) were evaluated. The bacteria were incubated overnight, centrifuged at 3000×g for 5 mins, the supernatant was discarded, and the residue pellets were resuspended in 10 mL PBS. The inoculums were standardised by measuring the optical density at 600 nm to assure a 1-3×10^8 CFU/mL. The standardised solutions were further diluted to prepare 1-3×10^6 and 1-3×10^4 CFU/mL suspension. 1×10^6 CFU would be an ideal breakpoint for a positive result, as this concentration coincides well with a level of colonisation that would likely go on to produce an infection.
100 μL bacterial suspensions were smeared over agar plates. Wound dressing samples were added to the top of the agar and were rolled over a few times (to ensure a full coverage and to ease the visibility of the colour change). The plates were incubated at 37° C., and the results were recorded after 24 h, after 48 h, after 72 h. The results are shown in Table 3-5; − indicates no colour change, +− indicates relatively discernible blue colour change, + indicates a moderately strong blue colour change and ++ indicates a strong blue colour change.

[3] = EC 10^4, substrate 300 mg/L, 24 h at 37° C.
[4] = EC 10^4, substrate 300 mg/L, 48 h at 37° C.
[5] = EC 10^4, substrate 300 mg/L, 72 h at 37° C.
[6] = EC 10^4, substrate 900 mg/L, 24 h at 37° C.
[7] = EC 10^4, substrate 900 mg/L, 48 h at 37° C.
[8] = EC 10^4, substrate 900 mg/L, 72 h at 37° C.
[9] = EC 10^4, substrate 1500 mg/L, 24 h at 37° C.
[10] = EC 10^4, substrate 1500 mg/L, 48 h at 37° C.
[11] = EC 10^4, substrate 1500 mg/L, 72 h at 37° C.
[12] = EC 10^6, substrate 300 mg/L, 24 h at 37° C.
[13] = EC 10^6, substrate 300 mg/L, 48 h at 37° C.
[14] = EC 10^6, substrate 300 mg/L, 72 h at 37° C.
[15] = EC 10^6, substrate 900 mg/L, 24 h at 37° C.
[16] = EC 10^6, substrate 900 mg/L, 48 h at 37° C.
[17] = EC 10^6, substrate 900 mg/L, 72 h at 37° C.
[18] = EC 10^6, substrate 1500 mg/L, 24 h at 37° C.
[19] = EC 10^6, substrate 1500 mg/L, 48 h at 37° C.
[20] = EC 10^6, substrate 1500 mg/L, 72 h at 37° C.
[21] = EC 10^8, 10^6 or 10^4 CFU, after 72 h, every tested substrate concentration
[22] = EC 10^8, substrate 300 mg/L, 24 h at 37° C.
[23] = EC 10^8, substrate 300 mg/L, 48 h at 37° C.
[24] = EC 10^8, substrate 300 mg/L, 72 h at 37° C.
[25] = EC 10^8, substrate 900 mg/L, 24 h at 37° C.
[26] = EC 10^8, substrate 900 mg/L, 48 h at 37° C.
[27] = EC 10^8, substrate 900 mg/L, 72 h at 37° C.
[28] = EC 10^8, substrate 1500 mg/L, 24 h at 37° C.
[29] = EC 10^8, substrate 1500 mg/L, 48 h at 37° C.
[30] = EC 10^8, substrate 1500 mg/L, 72 h at 37° C.
[31] = substrate 300 mg/L, hydrochloride

SMILES | Observable colour change (Pseudomonas aeruginosa; substrate 600 mg/L) | Observable colour change (Pseudomonas aeruginosa; substrate 900 mg/L) | Observable colour change (Pseudomonas aeruginosa; substrate 3000 mg/L) | Observable colour change (Escherichia coli [1]; substrate 600 mg/L) | Observable colour change (Escherichia coli [1]; substrate 900 mg/L) | Observable colour change (Escherichia coli [1]; substrate 3000 mg/L) | Observable colour change (Escherichia coli [2]; [3]) | Observable colour change (Escherichia coli [2]; [4]) | Observable colour change (Escherichia coli [2]; [5]) | Observable colour change (Escherichia coli [2]; [6]) | Observable colour change (Escherichia coli [2]; [7]) | Observable colour change (Escherichia coli [2]; [8]) | Observable colour change (Escherichia coli [2]; [9]) | Observable colour change (Escherichia coli [2]; [10]) | Observable colour change (Escherichia coli [2]; [11]) | Observable colour change (Escherichia coli [2]; [12]) | Observable colour change (Escherichia coli [2]; [13]) | Observable colour change (Escherichia coli [2]; [14]) | Observable colour change (Escherichia coli [2]; [15]) | Observable colour change (Escherichia coli [2]; [16]) | other results
CC(C)C[C@H](N)C(=O)Nc1ccc(N(C)C)cc1.Cl [3a, (2S)-2-amino-N-[4-(dimethylamino)phenyl]-4-methyl-pentanamide hydrochloride] | Light blue | Blue | Blue | Light blue | Blue | Dark blue | − | − | − | − | − | + | − | +− | + | − | +− | + | − | +− | Observable colour change (Pseudomonas aeruginosa; substrate 300 mg/L): None; Observable colour change (Escherichia coli [1]; substrate 300 mg/L): Light blue; Observable colour change (Escherichia coli [2]; [17]): +; Observable colour change (Escherichia coli [2]; [18]): +−; Observable colour change (Escherichia coli [2]; [19]): +; Observable colour change (Escherichia coli [2]; [20]): ++; colour change (Escherichia coli [2]; [21]): moderate or strong blue colour changes; Observable colour change (Escherichia coli [2]; [22]): +−; Observable colour change (Escherichia coli [2]; [23]): +; Observable colour change (Escherichia coli [2]; [24]): ++; Observable colour change (Escherichia coli [2]; [25]): +−; Observable colour change (Escherichia coli [2]; [26]): +; Observable colour change (Escherichia coli [2]; [27]): ++; Observable colour change (Escherichia coli [2]; [28]): +−; Observable colour change (Escherichia coli [2]; [29]): +; Observable colour change (Escherichia coli [2]; [30]): ++; colour change (Escherichia coli [2]; EC, substrate 900 or 1500 mg/L, printed in the 48 h paragraph): moderate or strong colour change
CCN(CC)c1ccc(NC(=O)[C@@H](N)CC(C)C)cc1.Cl [3b, (2S)-2-amino-N-[4-(diethylamino)phenyl]-4-methyl-pentanamide hydrochloride] | Light blue | Blue | Dark blue | Light blue | Dark blue | Dark blue | − | + | + | − | + | ++ | − | + | ++ | − | + | + | − | + | Observable colour change (Pseudomonas aeruginosa; [31]): blue colour changes; also recorded: Light blue; Observable colour change (Escherichia coli [1]; [31]): blue colour changes; also recorded: Light blue; colour change strength compared with the dimethyl analogue (Escherichia coli [1]; overnight cultures (EC, PSA, SA), overall comparison of Table 2): stronger colour changes than the dimethyl analogue (3a); Observable colour change (Escherichia coli [2]; [17]): ++; Observable colour change (Escherichia coli [2]; [18]): +−; Observable colour change (Escherichia coli [2]; [19]): +; Observable colour change (Escherichia coli [2]; [20]): ++; colour change (Escherichia coli [2]; EC 10^6 CFU and 10^4 CFU, after 48 h incubation): moderate colour change; colour change (Escherichia coli [2]; [21]): moderate or strong blue colour changes; Observable colour change (Escherichia coli [2]; [22]): +−; Observable colour change (Escherichia coli [2]; [23]): +; Observable colour change (Escherichia coli [2]; [24]): +; Observable colour change (Escherichia coli [2]; [25]): +−; Observable colour change (Escherichia coli [2]; [26]): ++; Observable colour change (Escherichia coli [2]; [27]): ++; Observable colour change (Escherichia coli [2]; [28]): +−; Observable colour change (Escherichia coli [2]; [29]): ++; Observable colour change (Escherichia coli [2]; [30]): ++; colour change (Escherichia coli [2]; EC 10^8 CFU, 10^6 CFU, and 104 CFU, substrate 900 mg/L, printed in the 48 h paragraph): strong blue colour changes; colour change (Escherichia coli [2]; EC 10^8 CFU, after 48 h incubation, substrate 900 or 1500 mg/L): strong blue colour changes
